Source: patent publication US20090203062A1, “Method For Identifying And/Or Quantifying Anti-Infective Compounds” (priority 2005, published 2009)

Tests used:
Klebsiella pneumoniae [1] = settings: Tetrahymena pyriformis present; compared with the antibiotic activity IC50; FIG. 9
Excerpt: Preparation of SM no glucose (SM-) and Tetrahymena Medium is as described in example 1. […] Strains description Same Klebsiella pneumoniae strain is used as in example 1. […] Preparation of Tetrahymena pyriformis (Tp): The same Tp is used as in example 1. The day of the screen, resuspend the Tp cells in SM- and distribute Tp cells in the 384 well plates. […] Liquid dispenser for medium distribution Fill the same number of test plates as above with SM- with the liquid dispenser plate filler. (To test the antibiotic activity of the compounds). […] Description of the mother plate of compounds Each mother plate containing 24 columns of compounds is composed of 4 control columns (1, 12, 13 and 24) of DMSO and 320 wells of compounds. The DMSO columns have to be arranged according to the library. […] Transfer of library compounds with the 384 pin replicator. A test plate for quantifying anti-virulence activity contains Tp solution. A test plate for quantifying antibiotic activity contains SM-. […]
Tp, Klebsiella pneumoniae, compound are prepared as described in example 2 and incubated in a matrix containing 384 wells (12×24) wells at 35° C. in humidity saturated incubator. […] Mutations or compound affecting pathogenicity could be assessed in terms of phenotype strength and potency, respectively with decreasing concentration of Tp.

Klebsiella pneumoniae [2] = assay: Klebsiella pneumoniae murine pulmonary infection model; type: in vivo; settings: 24 h post-infection, female Balb/cN mice
Experimental: Klebsiella pulmonary infection model was performed by intranasal instillation of 7-8 weeks old female Balb/cN with 20 μl containing […]. Compound or cefotaxime were injected intraperitoneally every 6 hours from the time of infection at the indicated doses. In vivo efficacy was assessed by measuring colony forming units (CFU) loads in the lungs at 24 h hours. Data analysis was performed using GraphPad Software Inc, San Diego, Calif., USA. Lane 1 is the initial load at time zero of the infection. Lane 2 is the load at 24 hours post-infection of mice treated with the vehicle only.

## COc1cc(Cc2cnc(N)nc2N)cc(OC)c1OC [trimethoprim]
Klebsiella pneumoniae [1]
  concentration at which the avirulence assay detected the antibiotic, lower than the IC50 of the antibiotic (sub-MIC effect): 2 Log

## C=CCSc1nnc(C)c(O)n1 [3-(allylsulfanyl)-5-hydroxy-6-methyl-1,2,4-triazine]
Klebsiella pneumoniae [2]; 225 mg/kg/day intraperitoneally every 6 hours
  reduction of CFU load in the lungs: 4 Log

## CO/N=C(\C(=O)N[C@@H]1C(=O)N2C(C(=O)O)=C(COC(C)=O)CS[C@H]12)c1csc(N)n1 [cefotaxime]
Klebsiella pneumoniae [2]; 37.5 mg/kg/day intraperitoneally every 6 hours
  reduction of CFU load in the lungs: 4 Log
